Like-named read-outs stand apart in the source and are kept apart here.
Columns and labels:
[1] = test system: PrPsc
[2] = target: PrPC (Bos taurus, UniProt P10279); conditions: fibronectin coupled with europium nanobeads, incubated with sample
[3] = test system: PrPsc; remark: listed apart in the source
[4] = target: PrPC (Homo sapiens, UniProt P04156); conditions: microtiter plate coated with fibronectin
[5] = test system: PrPsc; conditions: cited from earlier work
[6] = test system: prions; conditions: cited from earlier work

PrPC (Bos taurus, UniProt P10279), sequence (P10279 25-241 limits assumed): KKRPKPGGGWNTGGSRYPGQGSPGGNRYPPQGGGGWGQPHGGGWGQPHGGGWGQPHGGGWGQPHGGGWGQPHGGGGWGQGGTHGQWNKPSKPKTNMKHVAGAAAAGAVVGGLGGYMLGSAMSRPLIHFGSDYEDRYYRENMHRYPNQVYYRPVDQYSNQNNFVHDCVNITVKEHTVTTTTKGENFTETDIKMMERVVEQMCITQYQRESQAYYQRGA

fibronectin
adherence of pathological PrP (PrPsc) [1]: adheres | adherence of normal PrP (PrPc) [2]: does not | adherence of pathological PrP (PrPsc) [3]: adheres | adherence of normal PrP (PrPc) [4]: does not

plasminogen
binding of PrPsc [5]: binding specifically

poly-b-xylose-2,3-disulphonate [Pentosan]
inhibition of the production of prions [6]: inhibits the production of prions most strongly
